From patent US20220204473A1, “COMPOUND AS IRAK INHIBITOR” (SHANGHAI MEIYUE BIOTECH DEVELOPMENT CO., LTD., priority 2018, published 2022)
Where two headings read alike, the source gives them in different places.

Experiments:
[1] = PK assay in rat (intravenous injection and oral gavage); type: in vivo; conditions: plasma, male SD rat; for Cmax: read-out: Peak concentration Cmax; for AUC(0-t): read-out: Area under curve AUC0-t; for AUC(0-inf): read-out: Area under curve AUC0-∞; for MRT: read-out: Average retention time MRT; for clearance: read-out: Clearance CL; for half-life: read-out: Half life t1/2 (converted); for Vd: read-out: Volume of distribution at steady state VZ; for bioavailability: read-out: Bioavailability F; for Tmax: read-out: Time to peak tmax
Protocol: The rats used for pharmacokinetic study in the example were male SPF-grade SD rats (B&K Universal, Shanghai).
Route of administration: a single dose by oral gavage or intravenous injection
Sampling points: 0.083 h, 0.25 h, 0.5 h, 1 h, 2 h, 4 h, 6 h, 8 h and 24 h after administration
Sample processing: 0.2 mL of venous blood was collected, and let stand on ice before centrifugation to separate plasma (centrifugation conditions: 8000 rpm, 6 min, 4° C.). The separated plasma was stored at −80° C. before analysis.
Internal standard working solution: An appropriate amount of tolbutamide internal standard stock solution at 645,000 ng/mL was added into a volumetric flask, and was diluted to the volume with methanol. The solution was well mixed to give an internal standard working solution with a concentration of 50 ng/mL.
Sample pretreatment: 50 μL of plasma was added into a 1.5-mL centrifuge tube, and added with 250 μL of internal standard solution (methanol of the same volume for the blank control). The solution was well mixed by vortex, and centrifuged for 5 min at 14000 rpm. 200 μL of the supernatant was transferred into a 96-well sample feeding plate, and loaded onto a LC-MS/MS system.
Column: ACQUITY UPLC BEH C18 1.7 μm (50 mm×2.10 mm)
Mobile phase: A: 0.1% aqueous formic acid; B: 0.1% formic acid in acetonitrile
The data processing system was Analyst software (Applied Biosystems, USA, ver 1.5.5).

[2] = molecular target: T1, hERG potassium ion channel (Homo sapiens, UniProt Q12809); assay: hERG whole-cell patch clamp in HEK-293 cells; type: cell-based; conditions: HEK-293 cells stably expressing hERG, pH 7.4, inhibition for hERG at 30 μM concentration
T1 construct: expressed in transfected cells; host or cells: HEK-293
Protocol: This study evaluated the cardiac safety of the compounds according to the present disclosure, and an HEK-293 cell line stably expressing hERG potassium ion channel was used for detection.
Procedures: Test compound stocks were diluted in DMSO into 0.3 mM, 1 mM, and 3 mM dilutions respectively. […] The working solutions of the test compounds were ultrasonically treated for 20 min.
Patch clamping: Under an inverted microscope, recording electrodes were controlled by micromanipulator to contact with the cell. A negative voltage was applied to create a G-omega shaped connection. After forming the G-omega shaped connection, a rapid capacitance compensation was given. Under the continuous negative voltage, the cell membrane was ruptured to form a whole-cell recording configuration. In the whole-cell recording configuration, slow capacitance compensation was given, and the values of membrane capacitance and series resistance were recorded.
Voltage stimulation scheme for cellular hERG potassium current: The cell membrane clamping voltage was −80 mV; the voltage was first elevated from −80 mV to +30 mV, held for 2.5 sec, and rapidly raised to and held at −50 mV for 4 sec, thus exciting the hERG channel tail current. Data acquisition was performed every 10 sec. −50 mV was used for drain current detection.
The cover glasses planted with cells were placed in the recording chamber of an inverted microscope. Negative control and test compounds flowed through the recording chamber in an ascending order of concentration by gravity perfusion to quickly act on the cells. During the recording, the extracellular buffer was continuously circulated by a vacuum pump. The current detected in a cell in the negative control was used as the background for the cell. Each concentration was allowed to act for 5 min or until the current was stabilized. All experiments were performed at room temperature.
The current of each concentration was normalized first
and then the inhibition rate was calculated
Basic statistics were calculated for each concentration, including mean, standard deviation (SD), standard error (SE), and replicates (n). The dose-dependent curve was fitted with the following equation and the half maximal inhibitory concentration (IC50) of the test compounds was calculated:
wherein C represents the test compound concentration, IC50 represents the half maximal inhibitory concentration, and h represents the Hill coefficient. Curve fitting and calculation of IC50 were done by GraphPad Prism 5.0 software.

CYP1A2 = molecular target: T2, CYP1A2 (Homo sapiens, UniProt P05177); assay: CYP450 inhibition in human liver microsomes, CYP1A2; type: in vitro ADME; conditions: human liver microsomes, probe phenacetin; read-out: IC50, subtype 1A2
T2 construct: tissue Corning (USA); host or cells: mixed human liver microsomes
T2 sequence (P05177 1-516): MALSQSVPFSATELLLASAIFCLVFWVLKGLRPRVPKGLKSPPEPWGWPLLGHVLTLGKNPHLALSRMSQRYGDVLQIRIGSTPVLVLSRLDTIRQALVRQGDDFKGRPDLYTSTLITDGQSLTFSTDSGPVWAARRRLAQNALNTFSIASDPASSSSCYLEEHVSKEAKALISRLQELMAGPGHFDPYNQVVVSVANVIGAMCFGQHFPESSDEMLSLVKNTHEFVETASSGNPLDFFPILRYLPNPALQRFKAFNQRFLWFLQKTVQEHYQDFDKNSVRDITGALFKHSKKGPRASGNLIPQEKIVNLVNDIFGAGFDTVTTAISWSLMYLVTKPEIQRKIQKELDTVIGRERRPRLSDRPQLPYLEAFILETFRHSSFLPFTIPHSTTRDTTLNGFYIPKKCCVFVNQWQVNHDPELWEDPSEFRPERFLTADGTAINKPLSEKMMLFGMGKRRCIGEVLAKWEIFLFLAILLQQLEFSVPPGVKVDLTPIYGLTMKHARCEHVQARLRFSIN
Protocol: This study was intended to investigate the inhibitory effect of the test compounds on five major CYP450 enzyme subtypes CYP1A2, 2C9, 2C19, 2D6 and 3A4 in human liver microsomes. The mixed human liver microsomes used in this assay were purchased from Corning (USA). The test compounds were co-incubated at 7 concentrations with human liver microsomes and five probe substrates (phenacetin for CYP1a2, diclofenac for CYP2C9, mephenytoin for CYP2C19, dextromethorphan for CYP2D6, midazolam for CYP3A4-M, mixed). The reaction was initiated by adding coenzyme NADPH, and terminated by adding acetonitrile containing internal standard. After the proteins were precipitated, the supernatant was centrifuged. The characteristic metabolites in the supernatant (acetaminophen for CYP1A2, 4-hydroxydiclofenac for CYP2C9, 4-hydroxymephenytoin for CYP2C19, dextrorphan for CYP2D6, 1-hydroxymidazolam for CYP3A4-M) were analyzed by LC-MS/MS. The influence of the test compounds on production of the characteristic metabolites was finally analyzed on the basis of the data obtained. A selective inhibitor (ketoconazole for CYP3A4-M) was used as positive control. All samples were tested in duplicate.

[3] = system: Salmonella typhimurium TA98 and TA100; assay: Mini-Ames assay in Salmonella typhimurium; conditions: TA98 and TA100, with or without S9 mixture
Protocol: S9 homogenate: β-napthoflavone and phenobarbital induced rat liver microsome homogenate S9 fraction was used as the metabolic activation system for this assay. S9 was purchased from CHI Scientific, Inc. and stored in a freezer at −75° C. before use.
S9 mixture and mock mixture: S9 was quickly thawed to prepare a liquid mixture before the assay. 0.2 M PBS phosphate buffer (pH 7.4) was used as the mock mixture.
The overnight bacterial cultures were prepared from a stock of the strains. 80 μL of the stock was added to 20 mL of broth. For strains TA98 and TA100, 62.5 μL of ampicillin at a concentration of 0.8% were added per 10 mL of broth #2. The inoculated broth was then incubated on a thermostatic shaker overnight at 37° C. with a rotation speed of 160±10 rpm. The overnight cultures over the target absorbance were stored at 2-8° C. before use. The overnight cultures were used for genotyping and mutation tests.
The experimental system was exposed to the test compounds on plates in plate incorporation assay (Ames et al., 1975; N. Flamand et al., 2000).

[4] = 1 mg/kg, intravenous injection, 1 mpk, 5% DMSO + 15% Solutol + 80% Saline
[5] = 1 mg/kg, intravenous injection, 1 mpk
[6] = 2 mg/kg, oral administration, 2 mpk, 5% DMSO + 15% Solutol + 80% Saline
[7] = 5 mg/kg, oral administration, 5 mpk, 15% solutol HS15 + 85% PBS

T1 sequence (Q12809 whole entry): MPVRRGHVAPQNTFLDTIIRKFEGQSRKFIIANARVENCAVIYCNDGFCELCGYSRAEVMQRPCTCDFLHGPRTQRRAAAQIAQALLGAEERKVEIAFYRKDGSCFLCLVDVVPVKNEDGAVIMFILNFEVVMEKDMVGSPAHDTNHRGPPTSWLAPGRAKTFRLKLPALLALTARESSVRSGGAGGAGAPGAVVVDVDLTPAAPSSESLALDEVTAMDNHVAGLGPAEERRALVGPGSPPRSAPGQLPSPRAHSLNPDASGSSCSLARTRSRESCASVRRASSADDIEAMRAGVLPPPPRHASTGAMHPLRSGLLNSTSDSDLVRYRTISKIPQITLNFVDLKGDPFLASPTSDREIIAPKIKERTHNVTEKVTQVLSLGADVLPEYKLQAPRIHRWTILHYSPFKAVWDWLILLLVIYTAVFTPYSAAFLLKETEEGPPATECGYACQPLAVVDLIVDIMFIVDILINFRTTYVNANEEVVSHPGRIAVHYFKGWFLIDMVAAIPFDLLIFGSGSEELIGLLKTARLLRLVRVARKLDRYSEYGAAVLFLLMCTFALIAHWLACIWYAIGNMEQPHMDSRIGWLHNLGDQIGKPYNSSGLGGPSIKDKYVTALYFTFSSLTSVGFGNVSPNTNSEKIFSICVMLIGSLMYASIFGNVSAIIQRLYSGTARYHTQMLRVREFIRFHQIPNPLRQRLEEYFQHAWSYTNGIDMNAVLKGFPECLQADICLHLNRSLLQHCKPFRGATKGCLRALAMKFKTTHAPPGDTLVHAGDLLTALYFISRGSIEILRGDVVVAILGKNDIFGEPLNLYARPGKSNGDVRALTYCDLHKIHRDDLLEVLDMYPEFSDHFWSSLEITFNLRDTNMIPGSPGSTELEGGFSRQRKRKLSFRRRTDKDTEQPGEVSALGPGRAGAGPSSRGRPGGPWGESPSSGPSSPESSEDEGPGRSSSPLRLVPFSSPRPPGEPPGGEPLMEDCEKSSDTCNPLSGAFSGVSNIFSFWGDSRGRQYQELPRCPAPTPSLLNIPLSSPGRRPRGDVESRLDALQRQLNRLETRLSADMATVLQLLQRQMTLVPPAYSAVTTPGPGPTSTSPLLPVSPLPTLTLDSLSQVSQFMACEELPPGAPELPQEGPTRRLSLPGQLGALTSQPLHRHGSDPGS

Row | IC50 (CYP1A2) | Compound | Cmax [1, 4] | AUC(0-t) [1, 5] | AUC(0-inf) [1, 5] | MRT [1, 5] | clearance [1, 5] | half-life [1, 5] | Vd [1, 5] | inhibition at 5 min, 30 µM [2] | AUC(0-t) [1, 7] | AUC(0-inf) [1, 7] | MRT [1, 7] | bioavailability [1, 7] | half-life [1, 7] | Cmax [1, 7] | Tmax [1, 7] | Mini-Ames result [3] | also measured
1 |  | CN(C)c1cc2nn([C@H]3C[C@H](C(C)(C)O)C3)cc2cc1NC(=O)c1cccc(C(F)(F)F)n1 [MY-004-089] | 1580 ng/mL | 3390 ng·h/mL | 3510 ng·h/mL | 5.2 h | 4.89 mL/min/kg | 5.5 h | 2.26 L/kg |  |  |  |  |  |  |  |  |  | AUC(0-t) [1, 6]: 3000 ng·h/mL; AUC(0-inf) [1, 6]: 3550 ng·h/mL; MRT [1, 6]: 12.6 h; bioavailability [1, 6]: 44.2%; half-life [1, 6]: 8.11 h; Cmax [1, 6]: 227 ng/mL; Tmax [1, 6]: 4 h
2 | > 30 µM | COc1cc2nn([C@H]3CC[C@](C)(O)CC3)cc2cc1NC(=O)c1cccc(C(F)(F)F)n1 [MY-004-126-1] | 1210 ng/mL | 3150 ng·h/mL | 3250 ng·h/mL | 5.46 h | 5.14 mL/min/kg | 5.25 h | 2.34 L/kg | 12.8% | 11500 ng·h/mL | 17700 ng·h/mL | 22.4 h | 73.1% | 15.2 h | 924 ng/mL | 4 h |  | 
3 |  | COc1cc2nn([C@H]3CC[C@@](C)(O)CC3)cc2cc1NC(=O)c1cccc(C(F)(F)F)n1 [MY-004-126-2] | 1430 ng/mL | 4080 ng·h/mL | 4540 ng·h/mL | 8.81 h | 3.74 mL/min/kg | 7.59 h | 2.4 L/kg | 10.1% | 15400 ng·h/mL | 35900 ng·h/mL | 10.3 h | 75.8% | 24.8 h | 1150 ng/mL | 4 h | negative | 
4 |  | CN(C)c1cc2nn([C@H]3CC[C@H](O)CC3)cc2cc1NC(=O)c1cccc(C(F)(F)F)n1 [MY-004-153] |  |  |  |  |  |  |  | 17.7% |  |  |  |  |  |  |  |  | 
5 | > 30 µM | CC(C)(O)c1cc2nn([C@H]3CC[C@](C)(O)CC3)cc2cc1NC(=O)c1cccc(C(C)(F)F)n1 [MY-004-165] |  |  |  |  |  |  |  |  |  |  |  |  |  |  |  |  | 

Row | Compound | IC50 (CYP1A2) | Cmax [1, 4] | AUC(0-t) [1, 5] | AUC(0-inf) [1, 5] | MRT [1, 5] | clearance [1, 5] | half-life [1, 5] | Vd [1, 5] | inhibition at 5 min, 30 µM [2] | AUC(0-t) [1, 7] | AUC(0-inf) [1, 7] | MRT [1, 7] | bioavailability [1, 7] | half-life [1, 7] | Cmax [1, 7] | Tmax [1, 7] | Mini-Ames result [3] | also measured
6 | COc1cc2nn([C@H]3CC[C@H](O)CC3)cc2cc1NC(=O)c1cccc(C(F)(F)F)n1 [MY-004-127-1] | > 30 µM | 1420 ng/mL | 5530 ng·h/mL | 5880 ng·h/mL | 7.54 h | 2.84 mL/min/kg | 6.29 h | 1.55 L/kg | 11.6% | 18400 ng·h/mL | 22500 ng·h/mL | 9.16 h | 66.5% | 8.84 h | 1480 ng/mL | 4.67 h | negative | 
